Results as given in the supplement of paper PMC10307832.

Tests used:
Experiment in all cases: relative viability (nuclei count vs DMSO), 5 days (fraction); higher = more cells survive
[1] = system: NCI-H441
How it was run: (§1)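 For relative viability, nuclei counts in treated wells were divided by those in vehicle wells. Lung cancer cell lines had been pin-tool dosed in 1536-well plates the day after seeding and cultured for 5 days, then fixed and stained in one step (final 0.05% Triton X-100, 1% formaldehyde, 1 ug/ml Hoechst) and imaged at 4×. Doses were one drug alone or a fixed anchor-drug dose plus five library-drug doses (not always all listed) in √10 steps, and values are duplicate-plate medians.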

[2] = system: NCI-H23
How it was run: as §1

[3] = system: RERF-LC-KJ
How it was run: as §1

[4] = system: NCI-H1355
How it was run: as §1

[5] = system: NCI-H2009
How it was run: as §1

[6] = system: LCLC-97TM1
How it was run: as §1

[7] = system: NCI-H2023
How it was run: as §1

[8] = system: NCI-H727
How it was run: as §1

[9] = system: NCI-H322M
How it was run: as §1

[10] = system: HOP-62
How it was run: as §1

[11] = system: NCI-H1437
How it was run: as §1

[12] = system: NCI-H2085
How it was run: as §1

[13] = system: UMC-11
How it was run: as §1

[14] = system: NCI-H1755
How it was run: as §1

[15] = system: ChaGo-K-1
How it was run: as §1

[16] = system: LOU-NH91
How it was run: as §1

[17] = system: HCC-78
How it was run: as §1

[18] = system: NCI-H2405
How it was run: as §1

[19] = system: NCI-H2170
How it was run: as §1

[20] = system: SK-MES-1
How it was run: as §1

[21] = system: NCI-H1792
How it was run: as §1

O=C(O)CCCCC(CCSCc1ccccc1)SCc1ccccc1 (centres undefined) [CPI-613] + CC1(C)CCC(c2ccc(Cl)cc2)=C(CN2CCN(c3ccc(C(=O)NS(=O)(=O)c4ccc(N[C@H](CCN5CCOCC5)CSc5ccccc5)c(S(=O)(=O)C(F)(F)F)c4)cc3)CC2)C1 [Navitoclax] (partner 0.5 µM)
relative viability ([1]; first compound 5 µM): 0.564
relative viability ([1]; first compound 15.81 µM): 0.805
relative viability ([1]; first compound 50 µM): 0.731
relative viability ([1]; first compound 158.11 µM): 0.186
relative viability ([1]; first compound 500 µM): 0.0161
relative viability ([2]; first compound 5 µM): 0.858
relative viability ([2]; first compound 15.81 µM): 0.711
relative viability ([2]; first compound 50 µM): 0.801
relative viability ([2]; first compound 158.11 µM): 0.564
relative viability ([2]; first compound 500 µM): 0.027
relative viability ([3]; first compound 5 µM): 1.01
relative viability ([3]; first compound 15.81 µM): 0.747
relative viability ([3]; first compound 50 µM): 1.27
relative viability ([3]; first compound 158.11 µM): 0.964
relative viability ([3]; first compound 500 µM): 0.756
relative viability ([4]; first compound 5 µM): 0.993
relative viability ([4]; first compound 15.81 µM): 0.988
relative viability ([4]; first compound 50 µM): 1
relative viability ([4]; first compound 158.11 µM): 0.593
relative viability ([4]; first compound 500 µM): 0.128
relative viability ([5]; first compound 5 µM): 1.18
relative viability ([5]; first compound 15.81 µM): 1.08
relative viability ([5]; first compound 50 µM): 1.11
relative viability ([5]; first compound 158.11 µM): 0.264
relative viability ([5]; first compound 500 µM): 0.0303
relative viability ([6]; first compound 5 µM): 0.299
relative viability ([6]; first compound 15.81 µM): 0.502
relative viability ([6]; first compound 50 µM): 0.658
relative viability ([6]; first compound 158.11 µM): 0.079
relative viability ([6]; first compound 500 µM): 0.0431
relative viability ([7]; first compound 5 µM): 1.01
relative viability ([7]; first compound 15.81 µM): 0.997
relative viability ([7]; first compound 50 µM): 0.951
relative viability ([7]; first compound 158.11 µM): 0.103
relative viability ([7]; first compound 500 µM): 0.0259
relative viability ([8]; first compound 5 µM): 0.386
relative viability ([8]; first compound 15.81 µM): 0.337
relative viability ([8]; first compound 50 µM): 0.331
relative viability ([8]; first compound 158.11 µM): 0.0645
relative viability ([8]; first compound 500 µM): 0.046
relative viability ([9]; first compound 5 µM): 1.21
relative viability ([9]; first compound 15.81 µM): 1.17
relative viability ([9]; first compound 50 µM): 1.27
relative viability ([9]; first compound 158.11 µM): 1.05
relative viability ([9]; first compound 500 µM): 0.982
relative viability ([10]; first compound 5 µM): 0.927
relative viability ([10]; first compound 15.81 µM): 0.992
relative viability ([10]; first compound 50 µM): 0.978
relative viability ([10]; first compound 158.11 µM): 0.984
relative viability ([10]; first compound 500 µM): 0.911
relative viability ([11]; first compound 5 µM): 1.03
relative viability ([11]; first compound 15.81 µM): 0.957
relative viability ([11]; first compound 50 µM): 1.03
relative viability ([11]; first compound 158.11 µM): 0.199
relative viability ([11]; first compound 500 µM): 0.0367
relative viability ([12]; first compound 5 µM): 0.988
relative viability ([12]; first compound 15.81 µM): 1.04
relative viability ([12]; first compound 50 µM): 1.07
relative viability ([12]; first compound 158.11 µM): 0.543
relative viability ([12]; first compound 500 µM): 0.196
relative viability ([13]; first compound 5 µM): 0.28
relative viability ([13]; first compound 15.81 µM): 0.324
relative viability ([13]; first compound 50 µM): 0.278
relative viability ([13]; first compound 158.11 µM): 0.143
relative viability ([13]; first compound 500 µM): 0.0935
relative viability ([14]; first compound 5 µM): 0.945
relative viability ([14]; first compound 15.81 µM): 0.934
relative viability ([14]; first compound 50 µM): 0.935
relative viability ([14]; first compound 158.11 µM): 0.831
relative viability ([14]; first compound 500 µM): 0.161
relative viability ([15]; first compound 5 µM): 0.671
relative viability ([15]; first compound 15.81 µM): 0.982
relative viability ([15]; first compound 50 µM): 0.935
relative viability ([15]; first compound 158.11 µM): 0.882
relative viability ([15]; first compound 500 µM): 0.643
relative viability ([16]; first compound 5 µM): 0.683
relative viability ([16]; first compound 15.81 µM): 0.653
relative viability ([16]; first compound 50 µM): 0.664
relative viability ([16]; first compound 158.11 µM): 0.682
relative viability ([16]; first compound 500 µM): 0.579
relative viability ([17]; first compound 5 µM): 0.731
relative viability ([17]; first compound 15.81 µM): 0.749
relative viability ([17]; first compound 158.11 µM): 0.783
relative viability ([17]; first compound 500 µM): 0.876
relative viability ([18]; first compound 5 µM): 0.929
relative viability ([18]; first compound 15.81 µM): 0.796
relative viability ([18]; first compound 50 µM): 0.765
relative viability ([18]; first compound 158.11 µM): 0.795
relative viability ([18]; first compound 500 µM): 0.67
relative viability ([19]; first compound 5 µM): 0.6
relative viability ([19]; first compound 15.81 µM): 0.573
relative viability ([19]; first compound 50 µM): 0.593
relative viability ([19]; first compound 158.11 µM): 0.396
relative viability ([19]; first compound 500 µM): 0.0998
relative viability ([20]; first compound 5 µM): 1.08
relative viability ([20]; first compound 15.81 µM): 1.17
relative viability ([20]; first compound 50 µM): 1.1
relative viability ([20]; first compound 158.11 µM): 1.03
relative viability ([20]; first compound 500 µM): 1
relative viability ([21]; first compound 5 µM): 0.518
relative viability ([21]; first compound 15.81 µM): 0.595
relative viability ([21]; first compound 50 µM): 0.603
relative viability ([21]; first compound 158.11 µM): 0.411
relative viability ([21]; first compound 500 µM): 0.601
